# Laboratory results published in publication PMC5114558, “Reader domain specificity and lysine demethylase-4 family function” (Nature Communications, 2016).
# “Also recorded” adds a separate entry of the source.
# How the values were obtained:
# Assay type in all cases: biochemical, human
# KDM4C full-length = test: MS-based demethylation assay, 1:1 substrate competition, full-length KDM4C; details: 1:1 (5 μM:5 μM) H3K36me3 and H3K23me3K36me3, MS; Supplementary Fig. 7d-e
# Protocol: (§1) In a typical demethylase reaction, the assay mixture containing 50 mM Tris pH 7.5, 50 mM NaCl, 50 μM (NH4)2Fe(SO4)2, 0.5 mM ascorbic acid, 1 mM α-ketoglutarate and 0.2 μM full-length KDM4A–C (Active Motif) was mixed with 5–10 μM of trimethylated histone peptides (detailed sequence information in Supplementary Table 1). Each peptide concentration was quantified by measuring Abs280nm for peptides containing either tryptophan or tyrosine residue. After incubation of assay mixture at 25 °C for 10, 30 and 60 min time point, 10 μl of aliquot was transferred to a clean tube containing 5 μl of 5% formic acid to quench the reaction. Each quenched sample was treated with standard StageTip protocol using C18 extraction disk (Model 2215, Empore, 3 M) to remove excess salts and detergents in the reaction mixture. Each eluate from StageTip containing peptides was dried at a reduced pressure (vacuum centrifuge) and was re-suspended with 10 μl of 5% acetonitrile solution (0.1% formic acid). The 1 μl of the sample was injected at 0.7 μl min^−1 flow rate onto a Dionex Ultimate 3000 Nano LC system equipped with Atlantis dC18 NanoEase reverse-phase column (3 μm, 100 μm × 150 mm, Waters) and coupled to a hybrid quadrupole-orbitrap MS (Q-Exactive, Thermo Scientific). The peptide was eluted at 4–15 min retention time with a linear gradient of 2–35% acetonitrile (0.1% formic acid). […]
# KDM4A full-length = test: MS-based demethylation assay, 1:1 substrate competition, full-length KDM4A; details: 1:1 (5 μM:5 μM) H3K36me3 and H3K23me3K36me3, MS; Supplementary Fig. 7d-e
# Protocol: as §1
# [1] = test system: KDM4B full-length protein; test: MS-based demethylation assay, 1:1 substrate competition, full-length KDM4B; details: 1:1 (5 μM:5 μM) H3K36me3 and H3K23me3K36me3, 25 °C, P<0.01 (Fig. 6c)
# Protocol: as §1
# [2] = test system: KDM4B full-length protein; test: MS-based demethylation assay, full-length KDM4B; details: 0.2 μM enzyme, 5–10 μM peptide, pH 7.5, 25 °C, MS read-out, single peptide substrates, Fig. 6a,b
# Protocol: In a typical demethylase reaction, the assay mixture containing 50 mM Tris pH 7.5, 50 mM NaCl, 50 μM (NH4)2Fe(SO4)2, 0.5 mM ascorbic acid, 1 mM α-ketoglutarate and 0.2 μM full-length KDM4A–C (Active Motif) was mixed with 5–10 μM of trimethylated histone peptides (detailed sequence information in Supplementary Table 1). Each peptide concentration was quantified by measuring Abs280nm for peptides containing either tryptophan or tyrosine residue. After incubation of assay mixture at 25 °C for 10, 30 and 60 min time point, 10 μl of aliquot was transferred to a clean tube containing 5 μl of 5% formic acid to quench the reaction. Each quenched sample was treated with standard StageTip protocol using C18 extraction disk (Model 2215, Empore, 3 M) to remove excess salts and detergents in the reaction mixture. Each eluate from StageTip containing peptides was dried at a reduced pressure (vacuum centrifuge) and was re-suspended with 10 μl of 5% acetonitrile solution (0.1% formic acid). The 1 μl of the sample was injected at 0.7 μl min^−1 flow rate onto a Dionex Ultimate 3000 Nano LC system equipped with Atlantis dC18 NanoEase reverse-phase column (3 μm, 100 μm × 150 mm, Waters) and coupled to a hybrid quadrupole-orbitrap MS (Q-Exactive, Thermo Scientific). The peptide was eluted at 4–15 min retention time with a linear gradient of 2–35% acetonitrile (0.1% formic acid). All the solvents used for liquid chromatography MS were HPLC grade (Fisher). For each analysis, MS1 scan range of 300–1,100 m/z was used and data-dependent MS/MS was obtained to identify the site of demethylation. Each peptide peak and its area integration was performed on the XCalibur Qual Browser.
substance,measurement,setting,value
"H3K23me3K36me3: demethylation assay peptide, Tufts University Core Facility",preferential demethylation by KDM4C in 1:1 mixture,KDM4C full-length,not KDM4C
same,preferential demethylation by KDM4A in 1:1 mixture,KDM4A full-length,preferentially demethylates dually modified peptide; also recorded: enhanced for KDM4A and KDM4B but not KDM4C
same,preferential demethylation by KDM4B in 1:1 mixture,[1],preferentially demethylates dually modified peptide; also recorded: preferentially demethylate H3K36me3 in the context of dually modified peptide
same,demethylation by full-length KDM4B,[2],faster rates of H3K36me2 and H3K36me1 product formation
same,demethylation by full-length KDM4B,[2]; listed as H3(20–42)K23me3K36me3,increases H3K36me3 conversion to H3K36me1/2
